According to US12049439B2 (OrsoBio, Inc., priority 2018, dated 2024):
Where two headings read alike, the source gives them in different places.

Test system: PC-3 cells
Experiment: PC-3 Oxygen Rate Consumption (OCR) Assay
Type: cell-based
Settings: medium with 2% FBS, OCR at 3-min post-injection normalized to % increase over DMSO-treated cells, concentration for half-maximal OCR increase, read-out: EC50-PC3-OCR-FBS-3min
Summary of the method: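 Oxygen consumption read on Seahorse XFe96: three basal measurements, then compound injection and 10 cycles over 30 min. EC50 defined as concentration giving half-maximal OCR rise, using 3-min post-injection values as % above DMSO controls, six replicates per treatment, in PC-3 cells in glucose/pyruvate medium.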

| Compound | EC50 (Homo sapiens, 0.05 h) [µM] | EC50 [µM] |
| --- | --- | --- |
| CS(=O)(=O)Nc1ccc(S(=O)(=O)Nc2cc(C(F)(F)F)ccc2C(=O)NC23CC(C(F)(F)F)(C2)C3)cc1 [Example 107, 2-((4-(methylsulfonamido)phenyl)sulfonamido)-4-(trifluoromethyl)-N-(3-(trifluoromethyl)bicyclo[1.1.1]pentan-1-yl)benzamide] | 30.6 |  |
| N#CC1(S(=O)(=O)Nc2ccc(C(F)(F)F)cc2C(=O)NC23CC(C(F)(F)F)(C2)C3)CC1 [Example 108, 2-((1-cyanocyclopropane)-1-sulfonamido)-5-(trifluoromethyl)-N-(3-(trifluoromethyl)bicyclo[1.1.1]pentan-1-yl)benzamide] |  | 8.44 |
| O=C(NC12CC(C(F)(F)F)(C1)C2)c1ccc(C(F)(F)F)cc1NS(=O)(=O)c1ccc(F)cc1 [Example 109] | 0.38 |  |
| CC(C)(C)S(=O)(=O)Nc1cc(C(F)(F)F)ccc1C(=O)NC12CC(C(F)(F)F)(C1)C2 [Example 110, 2-((1,1-dimethylethyl)sulfonamido)-4-(trifluoromethyl)-N-(3-(trifluoromethyl)bicyclo[1.1.1]pentan-1-yl)benzamide] | 0.445 |  |
| COc1ccc(S(=O)(=O)Nc2cc(C(F)(F)F)ccc2C(=O)NC23CC(C(F)(F)F)(C2)C3)cc1 [Example 111, 2-((4-methoxyphenyl)sulfonamido)-4-(trifluoromethyl)-N-(3-(trifluoromethyl)bicyclo[1.1.1]pentan-1-yl)benzamide] | 0.811 |  |
| COCCOc1ccc(S(=O)(=O)Nc2cc(C(F)(F)F)ccc2C(=O)NC23CC(C(F)(F)F)(C2)C3)cc1 [Example 112, 2-((4-(2-methoxyethoxy)phenyl)sulfonamido)-4-(trifluoromethyl)-N-(3-(trifluoromethyl)bicyclo[1.1.1]pentan-1-yl)benzamide] | 1.29 |  |
| CSCCOc1ccc(S(=O)(=O)Nc2cc(C(F)(F)F)ccc2C(=O)NC23CC(C(F)(F)F)(C2)C3)cc1 [Example 113, 2-((4-(2-(methylthio)ethoxy)phenyl)sulfonamido)-4-(trifluoromethyl)-N-(3-(trifluoromethyl)bicyclo[1.1.1]pentan-1-yl)benzamide] | 0.697 |  |
| CC(C)(C)S(=O)(=O)Nc1cc(C(F)(F)F)ccc1C(=O)NC12CCC(C#N)(CC1)CC2 [Example 114, N-(4-cyanobicyclo[2.2.2]octan-1-yl)-2-((1,1-dimethylethyl)sulfonamido)-4-(trifluoromethyl)benzamide] | 3.48 |  |
| CS(=O)(=O)CCOc1ccc(S(=O)(=O)Nc2cc(C(F)(F)F)ccc2C(=O)NC23CC(C(F)(F)F)(C2)C3)cc1 [Example 115, 2-((4-(2-(methylsulfonyl)ethoxy)phenyl)sulfonamido)-4-(trifluoromethyl)-N-(3-(trifluoromethyl)bicyclo[1.1.1]pentan-1-yl)benzamide] | 12.6 |  |
| CCS(=O)(=O)Nc1cc(C(F)(F)F)ccc1C(=O)NC12CC(C(F)(F)F)(C1)C2 [Example 116, 2-(ethylsulfonamido)-4-(trifluoromethyl)-N-(3-(trifluoromethyl)bicyclo[1.1.1]pentan-1-yl)benzamide] | 1.58 |  |
| CS(=O)(=O)Nc1cc(S(F)(F)(F)(F)F)ccc1C(=O)NC12CCC(C#N)(CC1)CC2 [Example 117, N-(4-cyanobicyclo[2.2.2]octan-1-yl)-2-(methylsulfonamido)-4-(pentafluoro-λ^6-sulfanyl)benzamide] | 4.02 |  |
| CS(=O)(=O)c1ccc(S(=O)(=O)Nc2ccc(C(F)(F)F)cc2C(=O)NC23CCC(C#N)(CC2)CC3)cc1 [Example 118, N-(4-cyanobicyclo[2.2.2]octan-1-yl)-2-((4-(methylsulfonyl)phenyl)sulfonamido)-5-(trifluoromethyl)benzamide] | 49.2 |  |
| N#CC12CCC(NC(=O)c3cc(C(F)(F)F)ccc3NS(=O)(=O)c3ccc(F)cc3)(CC1)CC2 [Example 119, N-(4-cyanobicyclo[2.2.2]octan-1-yl)-2-((4-fluorophenyl)sulfonamido)-5-(trifluoromethyl)benzamide] | 1.26 |  |
| CCS(=O)(=O)Nc1ccc(C(F)(F)F)cc1C(=O)NC12CCC(C#N)(CC1)CC2 [Example 120, N-(4-cyanobicyclo[2.2.2]octan-1-yl)-2-(ethylsulfonamido)-5-(trifluoromethyl)benzamide] | 8.01 |  |
| COc1ccc(S(=O)(=O)Nc2ccc(C(F)(F)F)cc2C(=O)NC23CCC(C#N)(CC2)CC3)cc1 [Example 121, N-(4-cyanobicyclo[2.2.2]octan-1-yl)-2-((4-methoxyphenyl)sulfonamido)-5-(trifluoromethyl)benzamide] | 2.26 |  |
| N#CC12CCC(NC(=O)c3cc(C(F)(F)F)ccc3NS(=O)(=O)c3ccccc3)(CC1)CC2 [Example 122, N-(4-cyanobicyclo[2.2.2]octan-1-yl)-2-(phenylsulfonamido)-5-(trifluoromethyl)benzamide] | 1.52 |  |
| CC(C)(C)S(=O)(=O)Nc1ccc(C#N)cc1C(=O)NC12CCC(C#N)(CC1)CC2 [Example 123, 5-cyano-N-(4-cyanobicyclo[2.2.2]octan-1-yl)-2-((1,1-dimethylethyl)sulfonamido)benzamide] | 4.84 |  |
| N#Cc1ccc(NS(=O)(=O)C2CC2)c(C(=O)NC23CCC(C#N)(CC2)CC3)c1 [Example 124, 5-cyano-N-(4-cyanobicyclo[2.2.2]octan-1-yl)-2-(cyclopropanesulfonamido)benzamide] | 79.4 |  |
| N#CC12CCC(NC(=O)c3cc(C(F)(F)F)ccc3NS(=O)(=O)C3CC3)(CC1)CC2 [Example 125, N-(4-cyanobicyclo[2.2.2]octan-1-yl)-2-(cyclopropanesulfonamido)-5-(trifluoromethyl)benzamide] | 12.4 |  |
| CCCS(=O)(=O)Nc1ccc(C(F)(F)F)cc1C(=O)NC12CCC(C#N)(CC1)CC2 [Example 126, N-(4-cyanobicyclo[2.2.2]octan-1-yl)-2-(propylsulfonamido)-5-(trifluoromethyl)benzamide] | 5.12 |  |
| CCCCS(=O)(=O)Nc1ccc(C(F)(F)F)cc1C(=O)NC12CCC(C#N)(CC1)CC2 [Example 127, 2-(butylsulfonamido)-N-(4-cyanobicyclo[2.2.2]octan-1-yl)-5-(trifluoromethyl)benzamide] | 2.41 |  |
| COCCS(=O)(=O)Nc1ccc(C(F)(F)F)cc1C(=O)NC12CCC(C#N)(CC1)CC2 [Example 128, N-(4-cyanobicyclo[2.2.2]octan-1-yl)-2-((2-methoxyethyl)sulfonamido)-5-(trifluoromethyl)benzamide] | 15.4 |  |
| CCCCS(=O)(=O)Nc1ccc(C#N)cc1C(=O)NC12CCC(C#N)(CC1)CC2 [Example 129, 2-(butylsulfonamido)-5-cyano-N-(4-cyanobicyclo[2.2.2]octan-1-yl)benzamide] | 24.3 |  |
| N#CC12CCC(NC(=O)c3cc(C(F)(F)F)ccc3NS(=O)(=O)N3CCCC3)(CC1)CC2 [Example 130, N-(4-cyanobicyclo[2.2.2]octan-1-yl)-2-(pyrrolidine-1-sulfonamido)-5-(trifluoromethyl)benzamide] | 4.68 |  |
| N#Cc1ccc(NS(=O)(=O)N2CCCC2)c(C(=O)NC23CCC(C#N)(CC2)CC3)c1 [Example 131, 5-cyano-N-(4-cyanobicyclo[2.2.2]octan-1-yl)-2-(pyrrolidine-1-sulfonamido)benzamide] | 19.5 |  |
| N#Cc1ccc(NS(=O)(=O)N2CCC2)c(C(=O)NC23CCC(C#N)(CC2)CC3)c1 [Example 132, 2-(azetidine-1-sulfonamido)-5-cyano-N-(4-cyanobicyclo[2.2.2]octan-1-yl)benzamide] | 50.9 |  |
